Results from PubChem BioAssay AID2060891 (Molecular Pharmacology Branch, DTP, NCI, 2025).

Test system: K98450-129-R-PDC complex spheroid growth, percent test/control
Test: Anticancer human tumor K98450-129-R-PDC patient-derived colon adenocarcinoma cell line growth inhibition [RAS]
Details: for IC50: curve of first compound; for viability, T/C: stronger effect = lower value
Description: RAS pathway inhibitors in Combinations in Complex Spheroids
A high-throughput screen of multi-cell type tumor spheroids was designed to identify active combinations of RAS pathway inhibitors and targeted small molecules. Complex spheroids include a stromal component modeled by human endothelial cells (HUVEC) and fibroblasts modeled by human mesenchymal stem cells (MSCs). The concentration ranges selected for each drug and investigational agent were based upon clinically achievable concentrations if the clinical Cmax of the agent was known.
Compounds. The drugs and investigational agents: abemaciclib (NSC768073), cobimetinib (NSC768068), divarasib (GDC6063, NSC841802), docetaxel (NSC628503), GDC-1971 (RLY-1971, NSC841576), gemcitabine (NSC613327), inavolisib (NSC800729), ipatasertib (NSC767898), KB-0742 (NSC834161), MRTX-1133 (NSC836407), osimertinib (NSC779217), RMC-4630 (NSC839698), RMC-6236 (NSC851965), RMC-6291 (NSC852671), Ro-3306 (NSC812927), sapanisertib (NSC764658), SN-38 (NSC673596), staurosporine (NSC755774), SY5609 (NSC837396), and tovorafenib (DAY101, NSC766906), were obtained from the National Cancer Institute (NCI) Developmental Therapeutics Program Chemical Repository. The FDA-approved anticancer drug set is available from the NCI Developmental Therapeutics Program. […] The stock solutions were prepared in dimethyl sulfoxide (DMSO, Sigma-Aldrich, St. Louis, MO, cat. D2650) at 800-fold the tested concentration and stored at -70 degrees C prior to their use. All drugs and investigational agents were tested over a range starting from a high concentration at or near the clinical Cmax and decreasing in half-log increments. If the clinical Cmax for an agent had not been determined, the highest concentration tested was 10 microM.
Cell Culture. All cells were maintained in an incubator at 37 degrees C and 5% CO2 with 95% humidity. The PDC lines were cultured according to standard operating procedures established by the NCI PDMR. All PDCs were thawed and cultured in Matrigel-coated flasks prepared with a working solution of 1X Ham's F-12 nutrient mix, without supplementation (Invitrogen, Waltham, MA, cat. 11765054), 100 U/mL penicillin-streptomycin (Invitrogen, cat. 15140122), and 2.5% Matrigel (Corning Inc., Corning, NY, cat. 354248) for the first three passages. The 362531-283-R-J2-PDC and 782815-120-R-J1-PDC lines were cultured in 6C/Colon 1B media, which includes advanced DMEM/F-12 (Thermo Fisher Scientific, cat. 12634028), 10 mM HEPES (Thermo Fisher Scientific, cat. 15630080), 1X GlutaMAX supplement (Thermo Fisher Scientific, cat. 35050061), 0.1 mg/mL primocin (InvivoGen, San Diego, CA, cat. ant-pm-2), 10% defined fetal bovine serum, heat inactivated (HyClone Laboratories Inc., Logan, UT, cat. SH30070.03HI), 50% L-WRN conditioned media (ATCC, cat. CRL-3276), 1.25 mM N-Acetyl-L-cysteine (Sigma-Aldrich, cat. A9165), 10 mM nicotinamide (Sigma-Aldrich, cat. N0636), 1X B-27 supplement (Thermo Fisher Scientific, cat. 17504044), 1X N-2 supplement (Thermo Fisher Scientific, cat. 17502048), 50 ng/mL human EGF (Thermo Fisher Scientific, cat. PHG0311), and 10 microM Y-27632 dihydrochloride (Tocris Bioscience, cat. 1254). The K12877-001-R-J1-PDC line was cultured in 6I media, which includes all 6C/Colon 1B media plus 10 ng/mL human FGF-10 (PeproTech, cat. 100-26), 1 ng/mL human FGF-2 (PeproTech, cat. 100-18B), 1 µM prostaglandin E2 (Tocris Bioscience, cat. 2296), […] hydrocortisone (Sigma-Aldrich, cat. H4001), and […] bovine insulin (Sigma-Aldrich, cat. I6634). The K86415-001-R-J1-PDC line was cultured in 6D media, which includes all 6C/Colon 1B media components minus the L-WRN conditioned media. The 485176-168-R4-J1-PDC was cultured in PANC media, which includes all 6C/Colon 1B media plus 100 ng/mL human FGF-10 (PeproTech, cat. 100-26), 500 nM SB-431542 (Selleckchem, cat. S1067), and 10 nM gastrin (Tocris Bioscience, cat. 3006). […]
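Further: spheroids exposed to agents for seven days before the viability readout.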
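Wherever viability, T/C is given: luminescence used as a proxy for viable cell amount.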

Structure (SMILES): CCc1c2c(nc3ccc(O)cc13)-c1cc3c(c(=O)n1C2)COC(=O)[C@]3(O)CC + CCn1c(-c2cc(N3CCN(C)CC3)cnc2C(C)OC)c2c3cc(ccc31)-c1csc(n1)CC(NC(=O)C1CC1C)C(=O)N1CCCC(N1)C(=O)OCC(C)(C)C2
- IC50 (second compound 0.000949 µM): 0.0836 µM
- IC50 (second compound 0.003 µM): 0.0571 µM
- IC50 (second compound 0.00949 µM): 0.0185 µM
- IC50 (second compound 0.03 µM): 0.00392 µM
- IC50 (second compound 0.0949 µM): < 0.000949 µM
- IC50 (second compound 0.3 µM): < 0.000949 µM
- viability, T/C (second compound 0.000949 µM, first compound 0.000949 µM): 105%
- viability, T/C (second compound 0.000949 µM, first compound 0.003 µM): 89.6%
- viability, T/C (second compound 0.000949 µM, first compound 0.00949 µM): 81.6%
- viability, T/C (second compound 0.000949 µM, first compound 0.03 µM): 52.6%
- viability, T/C (second compound 0.000949 µM, first compound 0.0949 µM): 53.1%
- viability, T/C (second compound 0.000949 µM, first compound 0.3 µM): 44.3%
- viability, T/C (second compound 0.003 µM, first compound 0.000949 µM): 91.6%
- viability, T/C (second compound 0.003 µM, first compound 0.003 µM): 75.3%
- viability, T/C (second compound 0.003 µM, first compound 0.00949 µM): 76%
- viability, T/C (second compound 0.003 µM, first compound 0.03 µM): 54.7%
- viability, T/C (second compound 0.003 µM, first compound 0.0949 µM): 43.8%
- viability, T/C (second compound 0.003 µM, first compound 0.3 µM): 36.4%
- viability, T/C (second compound 0.00949 µM, first compound 0.000949 µM): 69.5%
- viability, T/C (second compound 0.00949 µM, first compound 0.003 µM): 56.6%
- viability, T/C (second compound 0.00949 µM, first compound 0.00949 µM): 66.7%
- viability, T/C (second compound 0.00949 µM, first compound 0.03 µM): 39.6%
- viability, T/C (second compound 0.00949 µM, first compound 0.0949 µM): 29.3%
- viability, T/C (second compound 0.00949 µM, first compound 0.3 µM): 22.5%
- viability, T/C (second compound 0.03 µM, first compound 0.000949 µM): 53.4%
- viability, T/C (second compound 0.03 µM, first compound 0.003 µM): 52.8%
- viability, T/C (second compound 0.03 µM, first compound 0.00949 µM): 43.3%
- viability, T/C (second compound 0.03 µM, first compound 0.03 µM): 24.7%
- viability, T/C (second compound 0.03 µM, first compound 0.0949 µM): 22.8%
- viability, T/C (second compound 0.03 µM, first compound 0.3 µM): 13.9%
- viability, T/C (second compound 0.0949 µM, first compound 0.000949 µM): 19.6%
- viability, T/C (second compound 0.0949 µM, first compound 0.003 µM): 24.4%
- viability, T/C (second compound 0.0949 µM, first compound 0.00949 µM): 17.5%
- viability, T/C (second compound 0.0949 µM, first compound 0.03 µM): 12.3%
- viability, T/C (second compound 0.0949 µM, first compound 0.0949 µM): 13.2%
- viability, T/C (second compound 0.0949 µM, first compound 0.3 µM): 9.33%
- viability, T/C (second compound 0.3 µM, first compound 0.000949 µM): 12.4%
- viability, T/C (second compound 0.3 µM, first compound 0.003 µM): 15.5%
- viability, T/C (second compound 0.3 µM, first compound 0.00949 µM): 11.4%
- viability, T/C (second compound 0.3 µM, first compound 0.03 µM): 10.8%
- viability, T/C (second compound 0.3 µM, first compound 0.0949 µM): 10.3%
- viability, T/C (second compound 0.3 µM, first compound 0.3 µM): 6.55%
